Data on nine compounds can be found in US20080139664A1, “ANTI-GLYCATION AGENTS FOR PREVENTING AGE-, DIABETES-, AND SMOKING-RELATED COMPLICATIONS” (NATIONAL RESEARCH COUNCIL OF CANADA, priority 2001, published 2008).

Each structure is given as a SMILES string. Like-named read-outs stand apart in the source and are kept apart here.

For series [1], the system named is bovine serum albumin (BSA). Put plainly: Fluorescamine assay of free primary amino groups of BSA incubated with D-ribose. The series is classed as biochemical. The following applies: free primary amino group on BSA after 5 days at 37° C.; agent at 16.8 times IC50; 64% without agent. The protocol: Fluorescamine assay (Yeboah F. et al., J. Agric. Food Chem. 48, 2766-2774 (2000)) was performed on incubated mixtures of BSA and D-ribose, with or without the identified anti-glycation agents. The mixtures contained BSA (0.075 mM protein concentration or 4.53 mM of Lys residue concentration) and D-ribose (50 mM). […] The fluorescamine assay determines the number of free lysine residues of BSA. In this experiment, the final volume of the incubation mixtures was 10 mL and the incubation time was 5 days at 37° C. Prior to the fluorescamine assay, the proteins were isolated by reverse phase HPLC. The protein content was determined using the Bio-Rad protein determination reagent (Bradford method). The fluorescamine assay was done in triplicate.

The subject of series [2] is lysozyme. Put plainly: ESI-MS of lysozyme glycoforms after incubation with D-ribose.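 On all read-outs here: lysozyme incubated with D-ribose, with or without anti-glycation agents, then separated by reversed-phase HPLC and analysed by electrospray mass spectrometry.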 The following applies: 37° C., 5 days; for Peak area as % of total area of all glycoforms, 14,569: lysozyme + 2D-ribose − 2H2O (14,569 Da); for Peak area as % of total area of all glycoforms, 14,551: lysozyme + 2D-ribose − 3H2O (14,551 Da); for Peak area as % of total area of all glycoforms, 14,533: lysozyme + 2D-ribose − 5H2O (14,533 Da); for Peak area as % of total area of all glycoforms, 14,515: lysozyme + 2D-ribose − 6H2O (14,515 Da); for Peak area as % of total area of all glycoforms, 14,419: lysozyme + D-ribose − 2H2O (14,419 Da); for Peak area as % of total area of all glycoforms, 14,401: lysozyme + D-ribose − 3H2O (14,401 Da); for Peak area as % of total area of all glycoforms, 14,437: lysozyme + D-ribose − H2O (14,437 Da); for Peak area as % of total area of all glycoforms, 14,496: lysozyme + D-ribose − H2O with one carboxymethylated Lys residue (14,496 Da); for Peak area as % of total area of all glycoforms, 14,364: lysozyme with one carboxymethylated Lys residue (14,364 Da); for Peak area as % of total area of all glycoforms, 14,305: unmodified lysozyme (14,305 Da).

Series [3] has as its system bovine serum albumin (BSA). Put plainly: Maillard fluorescence-based assay of AGEs formation, IC50 determination (BSA + D-ribose). The following applies: for IC50: inhibition of Maillard fluorescence development, 0.075 mM BSA, 50 mM D-ribose, 37° C., 5 days.
Experimental: (§1) During the glycation reaction between proteins and reducing sugars, a specific fluorescence with excitation and emission wavelength of 370 nm and 440 nm, respectively, is observed. […] The assay was based on the progressive development of the characteristic Maillard fluorescence (370 nm Ex and 440 nm Em) during the progress of the glycation reaction.
(§2) The final assay volume was 200 μl and each assay well contained 0.075 mM BSA, and 50 mM D-ribose. Compounds were assayed at 3 different concentration levels (0.003, 0.03, and 0.3 mg/mL) to determine the effect of concentration on inhibition. Samples were incubated for 5 days.
(§3) The Maillard fluorescence was directly measured from the reaction solution, except for the anti-glycants that quenched the Maillard fluorescence, which were analyzed by the earlier-described HPLC method.
(§4) Solutions were incubated in microtitre plates (96 wells) at 37° C. for 5 days in a closed system.
(§5) After one hour incubation at 37° C., fluorescence readings were taken.
(§6) The IC50 values of the compounds that quenched the fluorescence of the glycated BSA were analyzed by on-line monitoring of the fluorescence of the glycated BSA separated from the fluorescence quenching assay compound by RP-HPLC. The elution profile was monitored by UV-diode array and by fluorescence (λex=370 nm, λem=440 nm). […] The incubation conditions were the same as above.
The test system of series [4] is bovine serum albumin (BSA).
Experimental: as §1, §2, §3, §4, §5, §6

For orientation: IC50 means the point on the concentration scale where inhibition reaches its midpoint. `O=c1cc(-c2ccccc2O)oc2cc(O)cc(O)c12` [5,7,2′-Trihydroxyflavone]: the Unreacted amino group in series [1] came out at 53%. Further, in series [2], the “Peak area as % of total area of all glycoforms, 14,569” value (“Peak area as % of total area … 14,569” for short) was found to be 4.3%; the “Peak area as % of total area of all glycoforms, 14,551” value (“Peak area as % of total area … 14,551” below) is reported as 4.8%; the “Peak area as % of total area of all glycoforms, 14,533” value (shortened to “Peak area as % of total area … 14,533”) is listed as 2.3%; the “Peak area as % of total area of all glycoforms, 14,515” value (“Peak area as % of total area … 14,515” for short) was 1.7%. Further, in series [2], the “Peak area as % of total area of all glycoforms, 14,419” value (“Peak area as % of total area … 14,419” below) turned out to be 9.3%; the “Peak area as % of total area of all glycoforms, 14,401” value (shortened to “Peak area as % of total area … 14,401”) is recorded as 1.6%; the “Peak area as % of total area of all glycoforms, 14,437” value (“Peak area as % of total area … 14,437” for short) stood at 19.8%; the “Peak area as % of total area of all glycoforms, 14,496” value (“Peak area as % of total area … 14,496” below) was determined as 0.0%. For the same compound, in series [2], the “Peak area as % of total area of all glycoforms, 14,364” value (shortened to “Peak area as % of total area … 14,364”) was 5.8% and the “Peak area as % of total area of all glycoforms, 14,305” value (“Peak area as % of total area … 14,305” for short) is 46.7%. Also, the IC50 in series [3] was determined as 220 µM.

In series [1], `Oc1cc(O)c2c(c1)O[C@H](c1ccc(O)c(O)c1)[C@@H](O)C2` [(+)-Catechin] came in with an Unreacted amino group of 66%. Moreover, in series [2], the “Peak area as % of total area … 14,569” value turned out to be 2.8%; the “Peak area as % of total area … 14,551” value is 1.4%; the “Peak area as % of total area … 14,533” value was determined as 1.2%; the “Peak area as % of total area … 14,515” value amounted to 0.0%. For the same compound, in series [2], the “Peak area as % of total area … 14,419” value worked out at 4.0%; the “Peak area as % of total area … 14,401” value turned out to be 0.0%; the “Peak area as % of total area … 14,437” value was determined as 19.7%; the “Peak area as % of total area … 14,496” value stood at 0.0%. In addition, in series [2], the “Peak area as % of total area … 14,364” value is given as 2.0% and the “Peak area as % of total area … 14,305” value turned out to be 68.9%. The IC50 in series [3] is 19 µM.

In series [1], `O=C(O[C@@H]1Cc2c(O)cc(O)cc2O[C@@H]1c1cc(O)c(O)c(O)c1)c1cc(O)c(O)c(O)c1` [(−)-Epigallocatechin gallate] yielded an Unreacted amino group of 58%. In addition, in series [2], the “Peak area as % of total area … 14,569” value was 2.9%; the “Peak area as % of total area … 14,551” value worked out at 0.8%; the “Peak area as % of total area … 14,533” value is recorded as 1.7%; the “Peak area as % of total area … 14,515” value is on record as 0.0%. In series [2], the “Peak area as % of total area … 14,419” value came to 2.6%; the “Peak area as % of total area … 14,401” value was found to be 0.0%; the “Peak area as % of total area … 14,437” value worked out at 20.9%; the “Peak area as % of total area … 14,496” value came to 0.0%. In series [2], the “Peak area as % of total area … 14,364” value was 2.0% and the “Peak area as % of total area … 14,305” value was 69.1%. In addition, the “maximum percentage of the inhibition” value in series [3] (Maillard fluorescence, listed if significantly lower than 100%) is listed as 55%). Moreover, the IC50 in series [3] was determined as 48 µM.

With `CNCC(=O)c1ccc(O)c(O)c1` [Adrenalone], the Unreacted amino group in series [1] stood at 45%. Besides, in series [2], the “Peak area as % of total area … 14,569” value is recorded as 3.3%; the “Peak area as % of total area … 14,551” value was 1.3%; the “Peak area as % of total area … 14,533” value is 1.3%; the “Peak area as % of total area … 14,515” value was 1.5%. Also, in series [2], the “Peak area as % of total area … 14,419” value is 2.5%; the “Peak area as % of total area … 14,401” value was found to be 1.7%; the “Peak area as % of total area … 14,437” value amounted to 17.2%; the “Peak area as % of total area … 14,496” value came to 2.2%. In addition, in series [2], the “Peak area as % of total area … 14,364” value is 4.8% and the “Peak area as % of total area … 14,305” value is 59.3%. Also, the IC50 in series [3] amounted to 57 µM.

Regarding `O=C1C[C@@H](c2ccc(O)c(O)c2)Oc2cc(O)cc(O)c21` [Eriodictyol], the Unreacted amino group in series [1] was found to be 43%. In addition, in series [2], the “Peak area as % of total area … 14,569” value was 3.1%; the “Peak area as % of total area … 14,551” value is reported as 1.6%; the “Peak area as % of total area … 14,533” value amounted to 1.1%; the “Peak area as % of total area … 14,515” value worked out at 0.0%. Besides, in series [2], the “Peak area as % of total area … 14,419” value was found to be 5.0%; the “Peak area as % of total area … 14,401” value was determined as 0.4%; the “Peak area as % of total area … 14,437” value worked out at 20.2%; the “Peak area as % of total area … 14,496” value was found to be 0.0%. Also, in series [2], the “Peak area as % of total area … 14,364” value is reported as 1.9% and the “Peak area as % of total area … 14,305” value was determined as 66.7%. Besides, in series [3], the IC50 was 250 µM.

The compound `O=C1OC(CN2CCOCC2)CN1/N=C/c1ccc([N+](=O)[O-])o1` (centres unmarked) [Furaltadone] gave an Unreacted amino group in series [1] of 60%. For the same compound, in series [4], the midpoint of inhibition, the IC50, lay at 41 µM and the “maximum percentage of the inhibition” value came to 30%). For the same compound, in series [2], the “Peak area as % of total area … 14,569” value is 4.5%; the “Peak area as % of total area … 14,551” value is listed as 2.7%; the “Peak area as % of total area … 14,533” value is given as 1.1%; the “Peak area as % of total area … 14,515” value amounted to 0.0%. In series [2], the “Peak area as % of total area … 14,419” value amounted to 6.3%; the “Peak area as % of total area … 14,401” value worked out at 0.0%; the “Peak area as % of total area … 14,437” value was found to be 23.9%; the “Peak area as % of total area … 14,496” value stood at 0.0%. In series [2], the “Peak area as % of total area … 14,364” value was 0.9% and the “Peak area as % of total area … 14,305” value was determined as 60.6%.

As for `O=C1C=C(O)C(=O)c2ccccc21` [Lawsone], in series [1], the Unreacted amino group is given as 44%. This compound registered an IC50 in series [4] of 190 µM. In series [2], the “Peak area as % of total area … 14,569” value was found to be 0.0%; the “Peak area as % of total area … 14,551” value worked out at 0.0%; the “Peak area as % of total area … 14,533” value turned out to be 0.9%; the “Peak area as % of total area … 14,515” value came to 0.8%. Also, in series [2], the “Peak area as % of total area … 14,419” value is 4.9%; the “Peak area as % of total area … 14,401” value is 0.0%; the “Peak area as % of total area … 14,437” value was determined as 9.5%; the “Peak area as % of total area … 14,496” value was found to be 0.0%. In series [2], the “Peak area as % of total area … 14,364” value came to 7.5% and the “Peak area as % of total area … 14,305” value is reported as 74.3%.

The compound `C[C@](N)(Cc1ccc(O)c(O)c1)C(=O)O` [L-α-Methyl-DOPA] came in with an Unreacted amino group in series [1] of 47%. Also, the IC50 in series [4] worked out at 73 µM. In series [2], the “Peak area as % of total area … 14,569” value worked out at 2.7%; the “Peak area as % of total area … 14,551” value is given as 0.5%; the “Peak area as % of total area … 14,533” value is 0.1%; the “Peak area as % of total area … 14,515” value is 0.5%. For the same compound, in series [2], the “Peak area as % of total area … 14,419” value was 1.5%; the “Peak area as % of total area … 14,401” value is listed as 2.1%; the “Peak area as % of total area … 14,437” value stood at 18.3%; the “Peak area as % of total area … 14,496” value was determined as 1.0%. Further, in series [2], the “Peak area as % of total area … 14,364” value stood at 3.5% and the “Peak area as % of total area … 14,305” value was 69.4%.

In series [1], `O=c1cc(-c2ccc(O)c(O)c2)oc2cc(O)cc(O)c12` [Luteolin] returned an Unreacted amino group of 60%. The same compound showed an IC50 in series [4] of 60 µM. Moreover, in series [2], the “Peak area as % of total area … 14,569” value is listed as 5.2%; the “Peak area as % of total area … 14,551” value stood at 3.0%; the “Peak area as % of total area … 14,533” value was 3.9%; the “Peak area as % of total area … 14,515” value stood at 1.4%. In series [2], the “Peak area as % of total area … 14,419” value came out at 6.3%; the “Peak area as % of total area … 14,401” value was 2.1%; the “Peak area as % of total area … 14,437” value was found to be 21.2%; the “Peak area as % of total area … 14,496” value amounted to 0.8%. In series [2], the “Peak area as % of total area … 14,364” value amounted to 1.1% and the “Peak area as % of total area … 14,305” value came to 51.4%.
